According to patent publication US20220175688A1, “POLYMERIC NANOPARTICLES” (Hillstream BioPharma, Inc., priority 2015, published 2022):

Tests used:
MCF-7/PTX-R = assay: IC50 in PTX-resistant MCF-7 cells (Example 9); assay type: cell-based; conditions: Homo sapiens, MCF7
From the text: (§1) Accordingly, MCF-7 cells resistant to PTX were generated by exposure to increasing PTX concentrations (Table 9).

MCF-7/PTX-R cells = assay: Apoptosis in PTX-resistant cells (Annexin V/PI, FLOW, caspase-3 and PARP cleavage); assay type: cell-based, Human; conditions: 100 nM, 48 h
Protocol: Cells were then stained with Annexin V/PI and analyzed by FACS. […] (see Example 9).
Analysis was performed by immunoblotting with anti-caspase-3 CF, anti-PARP CF and anti-β-Actin antibodies (see Example 9).
as §1

[1] = tested on: MCF-7 breast cancer cells; assay: In vitro cytotoxicity, XTT cell proliferation assay; assay type: cell-based; conditions: Homo sapiens, MCF7, 72 hrs
Protocol: (§2) D. In vitro cytotoxicity analysis: […] The cells were maintained at 37° C. and 5% CO2 atmosphere for the duration of experiments. Exponentially growing cancer cells were plated into a 96-well plate at a seeding density of 3000 cells per well and incubated for 24 hrs.

[2] = tested on: MDA-MB231 breast cancer cells; assay: as above; assay type: cell-based; conditions: Homo sapiens, MDA-MB-231, 72 hrs
Protocol: as §2

Ehrlich tumor = assay: Antitumor activity in syngeneic Ehrlich tumor model (Example 8); assay type: in vivo, Balb/c mice; conditions: 21 days treatment
Protocol: H. Analysis of antitumor activity: Mice Ehrlich tumor cells were injected subcutaneously in the hind limb of syngeneic Balb/c mice (17-22 g). Tumor bearing mice (˜150 mm^3) were divided into 9 groups (6 mice/group) and treated weekly or biweekly intraperitoneally (i.p.) with different formulations for 21 days. Tumor volume was determined by vernier caliper and calculated using the formula (A×B^2)×0.5, where A and B are the longest and shortest tumor diameters, respectively. From each group, 1 mouse was sacrificed on day 7, 14, and 21 for harvesting of tumor for histopathologal examination. The tumors were fixed in 10% formalin/saline and embedded in paraffin. Five-micrometer sections were stained with hematoxylin and eosin for further immunohistochemistry, TUNNEL and Ki67 assay. Statistical analysis of tumor volumes was performed by one-way ANOVA using Graph pad prism. Survival of the mice was determined by the Kaplan-Meier method using Prism 4.0 software (Graph Pad Software).
The in vivo antitumor efficacy and systemic toxicity of the dual-drug and single drug loaded nanoparticles were evaluated on EAT tumor model Balb/c mice. […]

breast cancer = conditions: first-line treatment of locally recurrent or metastatic breast cancer; cited from earlier work
[3] = Size, zeta potential, % EE of singly or dually loaded PLA72K-PEG-PPG-PEG12.5K NPs; assay type: physicochemical
Protocol: PTX loaded nanoparticles were produced using an emulsion-solvent evaporation method. Briefly, 50 mg of copolymer in 5 ml acetonitrile (ACN) and 5 mg of PTX (LC Laboratories, Boston, Mass., US) were dissolved in 100 ul ACN and added to 50 mg of PLA-PEG-PPG-PEG solution in 5 ml ACN. The resulting mixture was then added into a 20 ml aqueous phase composed of F127 in distilled water and stirred at room temperature for 6 to 8 hours to facilitate solvent evaporation and nanoparticle stabilization. PTX and NuBCP-9 peptide loaded PLA-PEG-PPG-PEG (50 mg) nanoparticles were prepared by double emulsion process. Paclitaxel was added into the dissolved PLA-PEG-PPG-PEG copolymer followed by immediate addition of peptide with a slight sonication. […]
Nanoparticles were filtered through an Amikon 30-kDa ultrafilter (Millipore, USA) and washed twice with MQ water to remove free drug/dye. […] The filtrate was collected and analyzed for free NuBCP-9 peptide by a Micro-BCA Kit (Pierce Chemicals, USA) and measured on EPOCH microplate reader (BioTek, US) at 590 nm. Similarly, free paclitaxel was measured through high performance liquid chromatography HPLC (Perkin Elmer, US) assay method, using C18 column with acetonitrile, Water, Methanol (60:35:5 volume ratio) as mobile phase. Encapsulation efficiency (EE %) of NuBCP-9 peptide/PTX was determined using the following formula:

[4] = Isoelectric point of peptide; assay type: physicochemical

IC50 (MCF-7/PTX-R) [µM]	EE % of PTX ([3]; encapsulation efficiency) [%]	Compound	induction of apoptosis (MCF-7/PTX-R cells)	IC50 [1] [nM]	IC50 [2] [nM]	Ki67 expression in tumor tissues (Ehrlich tumor)	progression-free survival (breast cancer) [months]	isoelectric point [4] [pH]	EE % of Peptide ([3]; encapsulation efficiency of NuBCP-9) [%]
1.75	87	CC(=O)O[C@H]1C(=O)[C@@]2(C)[C@H]([C@H](OC(=O)c3ccccc3)[C@]3(O)C[C@H](OC(=O)[C@H](O)[C@@H](NC(=O)c4ccccc4)c4ccccc4)C(C)=C1C3(C)C)[C@]1(OC(C)=O)CO[C@@H]1C[C@@H]2O [PTX, Paclitaxel]	not	38	46	high	11	–	–
–	–	FSRSLHSLL (listed as Homo sapiens) [NuBCP-9]	–	–	–	–	–	~7.2	64.5
